Data: patent US20260008783A1, “MODULATORS OF FSHR AND USES THEREOF” (Celmatix Inc., priority 2022, published 2026)

Biological target: T1, Follicle Stimulating Hormone Receptor (FSHR) (Homo sapiens, UniProt P23945)
T1 construct: HA (N); expressed in transfected cells; host or cells: CHO-K1, transient transfection, pHM6 vector (CMV promoter)
T1 sequence (P23945 18-695): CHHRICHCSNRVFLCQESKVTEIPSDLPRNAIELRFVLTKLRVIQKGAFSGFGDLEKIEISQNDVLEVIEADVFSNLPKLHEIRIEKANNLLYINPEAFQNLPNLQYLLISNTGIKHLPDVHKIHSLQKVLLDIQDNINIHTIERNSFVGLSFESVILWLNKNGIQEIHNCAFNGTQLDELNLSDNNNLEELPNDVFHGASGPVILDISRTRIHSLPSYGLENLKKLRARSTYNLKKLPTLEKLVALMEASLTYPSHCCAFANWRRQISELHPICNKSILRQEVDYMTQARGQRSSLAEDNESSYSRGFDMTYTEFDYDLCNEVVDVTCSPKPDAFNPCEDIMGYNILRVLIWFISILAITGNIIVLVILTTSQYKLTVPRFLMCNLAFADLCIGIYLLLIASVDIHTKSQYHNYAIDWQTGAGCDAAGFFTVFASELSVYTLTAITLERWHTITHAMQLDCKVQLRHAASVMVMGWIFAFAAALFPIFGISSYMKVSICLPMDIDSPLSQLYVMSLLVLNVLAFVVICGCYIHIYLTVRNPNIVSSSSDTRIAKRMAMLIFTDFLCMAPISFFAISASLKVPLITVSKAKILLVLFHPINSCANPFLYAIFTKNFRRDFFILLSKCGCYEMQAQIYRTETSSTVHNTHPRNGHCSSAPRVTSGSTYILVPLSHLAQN
Assay: HTRF cAMP agonist assay, FSHR, transiently transfected CHO-K1 cells
Format: cell-based
Conditions: CHO-K1 cells transiently expressing human FSHR, read-out: IC50 FSHR LANCE CAMP

Row | IC50 | SMILES
1 | 102 nM | COc1cc2c(cc1-c1cncc(C(N)=O)c1)-c1c(c(C(=O)N3CCN(CC(F)(F)F)CC3(C)C)nn1-c1cc(Cl)cc(Cl)c1)CC2 [Compound 8-58, 5-(1-(3,5-dichlorophenyl)-3-(2,2-dimethyl-4-(2,2,2-trifluoroethyl)piperazine-1-carbonyl)-7-methoxy-4,5-dihydro-1H-benzo[g]indazol-8-yl)nicotinamide]
2 | 1760 nM | COc1cc2c(cc1-c1cncc(C(N)=O)c1)-c1c(c(C(=O)N3CCC4C3CCN4C)nn1-c1cc(Cl)cc(Cl)c1)CC2 (stereo not shown) [Compound 8-31]
3 | 5.64 nM | COc1cc2c(cc1-c1cncc(C(N)=O)c1)-c1c(c(C(=O)N3CCOCC3(C)C)nn1-c1ccccc1)CC2 [Compound 9-17]
4 | 222 nM | COc1cc2c(cc1-c1cncc(C(N)=O)c1)-c1c(c(C(=O)NC(C)CO)nn1-c1cc(Cl)cc(Cl)c1)CC2 (stereo not shown) [Compound 8-54A]
5 | 42 nM | COc1cc(C(N)=O)cc(-c2cc3c(cc2OC)COc2c(C(=O)N(C)C(C)(C)C)nn(-c4cc(Cl)cc(Cl)c4)c2-3)n1 [Compound 11-02, N-tert-butyl-8-(4-carbamoyl-6-methoxy-2-pyridyl)-1-(3,5-dichlorophenyl)-7-methoxy-N-methyl-5H-isochromeno[4,3-c]pyrazole-3-carboxamide]
6 | 14.8 nM | COc1cc2c(cc1-c1cncc(C(N)=O)c1)-c1c(c(C(=O)N3CCOCC3(C)C)nn1-c1cc(Cl)cc(Cl)c1)C2 [Compound 5-01, 5-[1-(3,5-dichlorophenyl)-3-(3,3-dimethylmorpholine-4-carbonyl)-6-methoxy-4H-indeno[1,2-c]pyrazol-7-yl]pyridine-3-carboxamide]
7 | 79.3 nM | COc1cc2c(cc1-c1cncc(C(N)=O)c1)-c1c(c(C(=O)N3C4CC3CN(C(=O)OC(C)(C)C)C4)nn1-c1cc(Cl)cc(Cl)c1)CC2 [Compound 8-16A]
8 | 38.9 nM | COc1cc2c(cc1-c1cncc(C(N)=O)c1)-c1c(c(C(=O)N3CCCC(=O)C3)nn1-c1cc(Cl)cc(Cl)c1)CC2 [Compound 8-83]
9 | 228 nM | COc1cc2c(cc1-c1cncc(C(N)=O)c1)-c1c(c(C(=O)N3CCNC(=O)C3(C)C)nn1-c1cc(Cl)cc(Cl)c1)S(=O)(=O)C2 [Compound 12-12]
10 | 2790 nM | COc1cc2c(cc1-c1cncc(C(N)=O)c1)-c1c(c(C(=O)N3CCN(CCN)CC3(C)C)nn1-c1cc(Cl)cc(Cl)c1)CC2 [Compound 8-66]
11 | 6.69 nM | COc1cc2c(cc1-c1cncc(C(N)=O)c1)-c1c(c(C(=O)N3CCC(=O)C3(C)C)nn1-c1cc(Cl)cc(Cl)c1)CC2 [Compound 8-90]
12 | 1790 nM | COc1cc2c(cc1-c1cncc(C(N)=O)c1)-c1[nH]nc(C(=O)N3CCOCC3(C)C)c1CC2 [Compound 9-01]
13 | 4.17 nM | COc1cc2c(cc1-c1cncc(C(N)=O)c1)-c1c(c(C(=O)N(C)C(C)C)nn1-c1cc(Cl)cc(Cl)c1)CC2 [Compound 8-36]
14 | 6.99 nM | CC1(C)COCCN1C(=O)c1nn(-c2cc(Cl)cc(Cl)c2)c2c1CCc1cc(O)c(-c3cncc(C(N)=O)c3)cc1-2 [Compound 9-04, 5-[1-(3,5-dichlorophenyl)-3-(3,3-dimethylmorpholine-4-carbonyl)-7-hydroxy-4,5-dihydrobenzo[g]indazol-8-yl]pyridine-3-carboxamide]
15 | 29.3 nM | COc1cc2c(cc1-c1cncc(C(N)=O)c1)-c1c(c(C(=O)N(C)C3CCCC3)nn1-c1cc(Cl)cc(Cl)c1)CC2 [Compound 8-47]
16 | 145 nM | COc1cc2c(cc1-c1cncc(C(N)=O)c1)-c1c(c(C(=O)N3CCC4C3CCN4C(=O)OC(C)(C)C)nn1-c1cc(Cl)cc(Cl)c1)CC2 (stereo not shown) [Compound 8-31A]
17 | 928 nM | COc1cc2c(cc1-c1cncc(C(N)=O)c1)-c1c(c(C(=O)N3CCC4CN(C(=O)OC(C)(C)C)CCC43)nn1-c1cc(Cl)cc(Cl)c1)CC2 (stereo not shown) [Compound 8-23A, tert-butyl 1-[8-(5-carbamoyl-3-pyridyl)-1-(3,5-dichlorophenyl)-7-methoxy-4,5-dihydrobenzo[g]indazole-3-carbonyl]-3,3a,4,6,7,7a-hexahydro-2H-pyrrolo[3,2-c]pyridine-5-carboxylate]
18 | 3400 nM | COc1cc2c(cc1-c1cncc(C(N)=O)c1)-c1c(c(C(=O)N3CCN(CC(=O)O)CC3(C)C)nn1-c1cc(Cl)cc(Cl)c1)CC2 [Compound 8-64]
19 | 7.32 nM | COc1cc2c(cc1-c1cccnc1)-c1c(c(C(=O)N3CCOCC3(C)C)nn1-c1cc(F)cc(F)c1)CO2 [Compound 15-08]

Row | IC50 | SMILES
20 | 192 nM | COc1cc2c(cc1-c1cncc(C(N)=O)c1)-c1c(c(C(=O)N3CCN(C(C)C)CC3(C)C)nn1-c1cc(Cl)cc(Cl)c1)CC2 [Compound 8-61, 5-(1-(3,5-dichlorophenyl)-3-(4-isopropyl-2,2-dimethylpiperazine-1-carbonyl)-7-methoxy-4,5-dihydro-1H-benzo[g]indazol-8-yl)nicotinamide]
21 | 61.3 nM | COc1cc2c(cc1-c1cncc(C(N)=O)c1)-c1c(c(C(=O)N(CC(F)(F)F)CC(F)(F)F)nn1-c1cc(Cl)cc(Cl)c1)CC2 [Compound 8-56]
22 | 453 nM | COc1cc2c(cc1-c1cncc(C(N)=O)c1)-c1c(c(C(=O)N3CC4CC(C3)N4)nn1-c1cc(Cl)cc(Cl)c1)CC2 [Compound 8-74, 5-(3-(3,6-diazabicyclo[3.1.1]heptane-3-carbonyl)-1-(3,5-dichlorophenyl)-7-methoxy-4,5-dihydro-1H-benzo[g]indazol-8-yl)nicotinamide]
23 | 754 nM | COc1cc2c(cc1-c1cncc(C(N)=O)c1)-c1c(c(C(=O)N3CCN(C(=O)OC(C)(C)C)C[C@@H]3C(C)C)nn1-c1cc(Cl)cc(Cl)c1)CC2 (stereo in doubt) [Compound 8-25A]
24 | 30.5 nM | COc1cc2c(cc1-c1cncc(C(N)=O)c1)-c1c(c(C(=O)N3CCNCC3(C)C)nn1-c1cc(Cl)cc(Cl)c1)CC2 [Compound 8-02]
25 | 3.44 nM | COc1cc2c(cc1-c1cncc(C(N)=O)c1)-c1c(c(C(=O)N3CCOCC3(C)C)nn1-c1cc(Cl)cc(Cl)c1)OC2 [Compound 2-01, 5-[1-(3,5-dichlorophenyl)-3-(3,3-dimethylmorpholine-4-carbonyl)-7-methoxy-5H-isochromeno[4,3-c]pyrazol-8-yl]pyridine-3-carboxamide]
26 | 60.3 nM | COc1cc2c(cc1-c1cncc(C(N)=O)c1)-c1c(c(C(=O)N3CCN(C)CC3C)nn1-c1cc(Cl)cc(Cl)c1)CC2 (stereo not shown) [Compound 8-05, 5-[1-(3,5-dichlorophenyl)-3-(2,4-dimethylpiperazine-1-carbonyl)-7-methoxy-4,5-dihydrobenzo[g]indazol-8-yl]pyridine-3-carboxamide]
27 | 17.4 nM | COc1cc2c(cc1-c1cncc(C(N)=O)c1)-c1c(c(C(=O)N3CCC[C@H]3C)nn1-c1cc(Cl)cc(Cl)c1)CC2 [Compound 8-45]
28 | 21.2 nM | COc1cc2c(cc1-c1cncc(C(N)=O)c1)-c1c(c(C(=O)N3COCC3(C)C)nn1-c1cc(Cl)cc(Cl)c1)S(=O)(=O)C2 [Compound 12-07]
29 | 2360 nM | COc1cc2oc3c(C(=O)N4CCOCC4(C)C)nn(-c4ccsc4)c3c2cc1-c1cncc(C#N)c1 [Compound 4-03B]
30 | 1720 nM | COc1cc2c(cc1-c1cncc(C(N)=O)c1)-c1c(c(C(=O)N3CC[C@H]4CN(C)C[C@H]43)nn1-c1cc(Cl)cc(Cl)c1)CC2 [Compound 8-30]
31 | 26.6 nM | COc1cc2c(cc1-c1cncc(C(N)=O)c1)-c1c(c(C(=O)N3COCC3(C)C)nn1-c1cc(Cl)cc(Cl)c1)CCO2 [Compound 12-11]
32 | 9.16 nM | COc1cc2c(cc1-c1cncc(C(N)=O)c1)-c1c(c(C(=O)N3CCCC3C)nn1-c1cc(Cl)cc(Cl)c1)CC2 (stereo not shown) [Compound 8-38]
33 | 33.3 nM | COc1cc2c(cc1-c1cncc(C#N)c1)-c1c(c(C(=O)N3CCOCC3(C)C)nn1-c1cc(Cl)cc(Cl)c1)CC2 [Compound 6-01B, 5-[1-(3,5-dichlorophenyl)-3-(3,3-dimethylmorpholine-4-carbonyl)-7-methoxy-4,5-dihydrobenzo[g]indazol-8-yl]pyridine-3-carbonitrile]
34 | 83.2 nM | COc1cc2ccc3c(C(=O)N4CCOCC4(C)C)nn(-c4cc(Cl)cc(Cl)c4)c3c2cc1-c1ccn(C)n1 [Compound 6-07, [1-(3,5-dichlorophenyl)-7-methoxy-8-(1-methylpyrazol-3-yl)benzo[g]indazol-3-yl]-(3,3-dimethylmorpholin-4-yl)methanone]
35 | 36.7 nM | COc1cc2c(cc1-c1cncc(C(N)=O)c1)-c1c(c(C(=O)N3CCNC(=O)C3(C)C)nn1-c1ccsc1)CC2 [Compound 12-23, 5-[3-(2,2-dimethyl-3-oxo-piperazine-1-carbonyl)-7-methoxy-1-(3-thienyl)-4,5-dihydrobenzo[g]indazol-8-yl]pyridine-3-carboxamide]
36 | 71.8 nM | COc1cc2c(cc1-c1cncc(C(N)=O)c1)-c1c(c(C(=O)N3CCNC[C@H]3C(C)C)nn1-c1cc(Cl)cc(Cl)c1)CC2 [Compound 8-25]
37 | 6.76 nM | COc1cc2c(cc1-c1cncc(C(N)=O)c1)-c1c(c(C(=O)N(C)C(C)C3CC3)nn1-c1cc(Cl)cc(Cl)c1)CC2 (stereo not shown) [Compound 8-42]
